No end group written: not given here.
tested on: E. coli ATCC 25922; format: cell-based, Escherichia coli; settings: ATCC 25922, 24 h
Description: The term “MIC” refers to minimal inhibitory concentration and will be defined as the lowest concentration of either soluble peptide or peptide immobilized on a polymer that results in total kill of bacteria.
The minimal inhibitory concentration (MIC) for the peptides was determined in sterile microtiter plates in a final volume of 200 μL using Trypticase Soy Broth (TSB; Difco Laboratories, Detroit, Mich.) as the growth medium. Serial two-fold dilutions of the peptide stock were made in the plate wells such that concentrations ranged from 512 to 2 μg/mL in a volume of 100 μL. Each well was then inoculated with 100 μL of a dilute suspension of bacteria in TSB yielding a final concentration of 1×10^4 bacteria/mL. The final peptide concentrations ranged from […]. The assay plates were incubated at 37° C. for 24 hours inside a Bioscreen C microtitre plate reader (Thermo Labsystems; Vantaa, Finland). Optical Density (OD) of the medium at 600 nm was recorded every 20 minutes to monitor cell growth. The lowest concentration of peptide preventing bacterial growth during the 24 hr period was defined as the MIC.

Sequence	MIC [µg/mL]
FKAFKAFKAFKAFKA [SEQ ID NO: 4, FKAFKAFKAFKAFKA]	128
FKAFKAFKAFKAFKAFKA [SEQ ID NO: 5, FKAFKAFKAFKAFKAFKA]	32
LKALKALKALKALKR [SEQ ID NO: 1, LKALKALKALKALKR]	64
LKVLKVLKVLKVLKV [SEQ ID NO: 2, LKVLKVLKVLKVLKV]	32
LKVLKVLKVLKVLKVLKV [SEQ ID NO: 3, LKVLKVLKVLKVLKVLKV]	4

Source: US7563764B2, “Antimicrobial peptides based on tripeptide repeats” (E. I. du Pont de Nemours and Company, priority 2004, dated 2009)
